Experiment: Stability of cannabinoid compounds and Vitamin E components in Beverage 1 (AB White) by LCMSMS
Format: physicochemical
Conditions: for Stability of Plant-Derived Cannabinoid Compounds in AB White, 8° C.: AB White stored at 8° C.; for Stability of Plant-Derived Cannabinoid Compounds in AB White, 21-25° C.: AB White stored at 21-25° C.

CCCCCc1cc(O)c(C/C=C(\C)CCC=C(C)C)c(O)c1 [CBG, cannabigerol]
Stability of Plant-Derived Cannabinoid Compounds in AB White, 8° C. (0 days): 4.87 µg/mL | Stability of Plant-Derived Cannabinoid Compounds in AB White, 8° C. (1 days): 4.74 µg/mL | Stability of Plant-Derived Cannabinoid Compounds in AB White, 8° C. (2 days): 4.91 µg/mL | Stability of Plant-Derived Cannabinoid Compounds in AB White, 8° C. (3 days): 4.74 µg/mL | Stability of Plant-Derived Cannabinoid Compounds in AB White, 8° C. (5 days): 4.88 µg/mL | Stability of Plant-Derived Cannabinoid Compounds in AB White, 8° C. (8 days): 4.86 µg/mL | Stability of Plant-Derived Cannabinoid Compounds in AB White, 8° C. (9 days): 4.89 µg/mL | Stability of Plant-Derived Cannabinoid Compounds in AB White, 8° C. (10 days): 4.77 µg/mL | Stability of Plant-Derived Cannabinoid Compounds in AB White, 8° C. (11 days): 4.87 µg/mL | Stability of Plant-Derived Cannabinoid Compounds in AB White, 8° C. (12 days): 4.87 µg/mL | Stability of Plant-Derived Cannabinoid Compounds in AB White, 8° C. (15 days): 4.81 µg/mL | Stability of Plant-Derived Cannabinoid Compounds in AB White, 8° C. (16 days): 4.84 µg/mL | Stability of Plant-Derived Cannabinoid Compounds in AB White, 8° C. (17 days): 4.78 µg/mL | Stability of Plant-Derived Cannabinoid Compounds in AB White, 8° C. (18 days): 4.81 µg/mL | Stability of Plant-Derived Cannabinoid Compounds in AB White, 8° C. (19 days): 4.83 µg/mL | Stability of Plant-Derived Cannabinoid Compounds in AB White, 8° C. (22 days): 4.75 µg/mL | Stability of Plant-Derived Cannabinoid Compounds in AB White, 8° C. (23 days): 4.89 µg/mL | Stability of Plant-Derived Cannabinoid Compounds in AB White, 8° C. (24 days): 4.83 µg/mL | Stability of Plant-Derived Cannabinoid Compounds in AB White, 8° C. (25 days): 4.89 µg/mL | Stability of Plant-Derived Cannabinoid Compounds in AB White, 8° C. (26 days): 4.77 µg/mL | Stability of Plant-Derived Cannabinoid Compounds in AB White, 8° C. (29 days): 4.91 µg/mL | Stability of Plant-Derived Cannabinoid Compounds in AB White, 8° C. (30 days): 4.79 µg/mL | Stability of Plant-Derived Cannabinoid Compounds in AB White, 8° C. (60 days): 4.68 µg/mL | Stability of Plant-Derived Cannabinoid Compounds in AB White, 8° C. (90 days): 4.66 µg/mL | Stability of Plant-Derived Cannabinoid Compounds in AB White, 8° C. (120 days): 4.89 µg/mL | Stability of Plant-Derived Cannabinoid Compounds in AB White, 8° C. (150 days): 4.83 µg/mL | Stability of Plant-Derived Cannabinoid Compounds in AB White, 8° C. (180 days): 4.71 µg/mL | Stability of Plant-Derived Cannabinoid Compounds in AB White, 8° C. (210 days): 4.73 µg/mL | Stability of Plant-Derived Cannabinoid Compounds in AB White, 8° C. (240 days): 4.69 µg/mL | Stability of Plant-Derived Cannabinoid Compounds in AB White, 8° C. (270 days): 4.72 µg/mL | Stability of Plant-Derived Cannabinoid Compounds in AB White, 8° C. (300 days): 4.74 µg/mL | Stability of Plant-Derived Cannabinoid Compounds in AB White, 8° C. (330 days): 4.69 µg/mL | Stability of Plant-Derived Cannabinoid Compounds in AB White, 8° C. (360 days): 4.66 µg/mL | Stability of Plant-Derived Cannabinoid Compounds in AB White, 8° C. (390 days): 4.68 µg/mL | Stability of Plant-Derived Cannabinoid Compounds in AB White, 8° C. (420 days): 4.66 µg/mL | Stability of Plant-Derived Cannabinoid Compounds in AB White, 8° C. (450 days): 4.68 µg/mL | Stability of Plant-Derived Cannabinoid Compounds in AB White, 8° C. (480 days): 4.64 µg/mL | Stability of Plant-Derived Cannabinoid Compounds in AB White, 8° C. (510 days): 4.49 µg/mL | Stability of Plant-Derived Cannabinoid Compounds in AB White, 8° C. (540 days): 4.53 µg/mL | Stability of Plant-Derived Cannabinoid Compounds in AB White, 8° C. (570 days): 4.46 µg/mL | Stability of Plant-Derived Cannabinoid Compounds in AB White, 21-25° C. (0 days): 4.87 µg/mL | Stability of Plant-Derived Cannabinoid Compounds in AB White, 21-25° C. (1 days): 4.73 µg/mL | Stability of Plant-Derived Cannabinoid Compounds in AB White, 21-25° C. (2 days): 4.72 µg/mL | Stability of Plant-Derived Cannabinoid Compounds in AB White, 21-25° C. (3 days): 4.75 µg/mL | Stability of Plant-Derived Cannabinoid Compounds in AB White, 21-25° C. (5 days): 4.89 µg/mL | Stability of Plant-Derived Cannabinoid Compounds in AB White, 21-25° C. (8 days): 4.90 µg/mL | Stability of Plant-Derived Cannabinoid Compounds in AB White, 21-25° C. (9 days): 4.79 µg/mL | Stability of Plant-Derived Cannabinoid Compounds in AB White, 21-25° C. (10 days): 4.68 µg/mL | Stability of Plant-Derived Cannabinoid Compounds in AB White, 21-25° C. (11 days): 4.74 µg/mL | Stability of Plant-Derived Cannabinoid Compounds in AB White, 21-25° C. (12 days): 4.88 µg/mL | Stability of Plant-Derived Cannabinoid Compounds in AB White, 21-25° C. (15 days): 4.87 µg/mL | Stability of Plant-Derived Cannabinoid Compounds in AB White, 21-25° C. (16 days): 4.80 µg/mL | Stability of Plant-Derived Cannabinoid Compounds in AB White, 21-25° C. (17 days): 4.80 µg/mL | Stability of Plant-Derived Cannabinoid Compounds in AB White, 21-25° C. (18 days): 4.72 µg/mL | Stability of Plant-Derived Cannabinoid Compounds in AB White, 21-25° C. (19 days): 4.68 µg/mL | Stability of Plant-Derived Cannabinoid Compounds in AB White, 21-25° C. (22 days): 4.68 µg/mL | Stability of Plant-Derived Cannabinoid Compounds in AB White, 21-25° C. (23 days): 4.85 µg/mL | Stability of Plant-Derived Cannabinoid Compounds in AB White, 21-25° C. (24 days): 4.80 µg/mL | Stability of Plant-Derived Cannabinoid Compounds in AB White, 21-25° C. (25 days): 4.86 µg/mL | Stability of Plant-Derived Cannabinoid Compounds in AB White, 21-25° C. (26 days): 4.78 µg/mL | Stability of Plant-Derived Cannabinoid Compounds in AB White, 21-25° C. (29 days): 4.76 µg/mL | Stability of Plant-Derived Cannabinoid Compounds in AB White, 21-25° C. (30 days): 4.73 µg/mL | Stability of Plant-Derived Cannabinoid Compounds in AB White, 21-25° C. (60 days): 4.83 µg/mL | Stability of Plant-Derived Cannabinoid Compounds in AB White, 21-25° C. (90 days): 4.65 µg/mL | Stability of Plant-Derived Cannabinoid Compounds in AB White, 21-25° C. (120 days): 4.59 µg/mL | Stability of Plant-Derived Cannabinoid Compounds in AB White, 21-25° C. (150 days): 4.63 µg/mL | Stability of Plant-Derived Cannabinoid Compounds in AB White, 21-25° C. (180 days): 4.79 µg/mL | Stability of Plant-Derived Cannabinoid Compounds in AB White, 21-25° C. (210 days): 4.75 µg/mL | Stability of Plant-Derived Cannabinoid Compounds in AB White, 21-25° C. (240 days): 4.79 µg/mL | Stability of Plant-Derived Cannabinoid Compounds in AB White, 21-25° C. (270 days): 4.62 µg/mL | Stability of Plant-Derived Cannabinoid Compounds in AB White, 21-25° C. (300 days): 4.67 µg/mL | Stability of Plant-Derived Cannabinoid Compounds in AB White, 21-25° C. (330 days): 4.71 µg/mL | Stability of Plant-Derived Cannabinoid Compounds in AB White, 21-25° C. (360 days): 4.69 µg/mL | Stability of Plant-Derived Cannabinoid Compounds in AB White, 21-25° C. (390 days): 4.70 µg/mL | Stability of Plant-Derived Cannabinoid Compounds in AB White, 21-25° C. (420 days): 4.72 µg/mL | Stability of Plant-Derived Cannabinoid Compounds in AB White, 21-25° C. (450 days): 4.73 µg/mL | Stability of Plant-Derived Cannabinoid Compounds in AB White, 21-25° C. (480 days): 4.46 µg/mL | Stability of Plant-Derived Cannabinoid Compounds in AB White, 21-25° C. (510 days): 4.51 µg/mL | Stability of Plant-Derived Cannabinoid Compounds in AB White, 21-25° C. (540 days): 4.48 µg/mL | Stability of Plant-Derived Cannabinoid Compounds in AB White, 21-25° C. (570 days): 4.47 µg/mL

Reference: patent US20260130395A1, “Water Dispersible Botanical Compositions” (Aquila Black Limited, priority 2021, published 2026)
